From PMC7086363, “All-stage precisional glioma targeted therapy enabled by a well-designed D-peptide” (Theranostics, 2020)
One block for each molecule: values may come before it. Where a SMILES comes first, the peptide text is derived from it. Where no end group is shown, it is not given here. [ ]: non-standard residue; d: D form. Ahx = NCCCCCC(=O)O

Experiments:
U87 cells = assay: Cellular internalization of fluorescein labelled peptides in U87 cells (flow cytometry); type: cell-based; details: 4 hours, Figure S1
Method: (§1) The targeting ability of ^DWVAP was evaluated in primary rat brain capillary endothelial cells (BCECs), HUVECs and U87 cells. […] OPC cells were previously proven as a cell line of glioma cell-of-origin with under-appreciated proliferative and plastic potentials. OPC cells were used here to evaluate the GSCs targeting effect of the developed peptides. […] In vivo, near-infrared dye Cy7 was conjugated with peptides and the conjugates were intravenously injected via the tail vein to test the targeting effect of ^DWVAP.
(§2) Brain capillary endothelial cells (BCEC), U87 cells and HUVEC cells were used to investigate the peptides targeting ability since they were main component of BBB, tumor and tumor vessels respectively. OPC cells were used to evaluate the glioma stem cell targeting ability in vitro [38]. Cellular uptake behavior was observed by the confocal microscope and the fluorescent intensity was captured by flow cytometry 4 hours after pre-incubation with different fluorescein labelled peptides.

HUVECs = assay: Cellular internalization of fluorescein labelled peptides in HUVECs (flow cytometry); type: cell-based, human; details: 4 hours, Figure S1
Method: as §1, §2

OPC cells = assay: Cellular internalization of fluorescein labelled peptides in OPC cells (GSC targeting); type: cell-based; details: confocal microscopy, Figure 2E
Method: as §1, §2

intracranial U87 glioma = assay: Kaplan-Meier survival of intracranial glioma bearing nude mice; type: in vivo; details: n = 8
Method: The intracranial glioma bearing mice were used to evaluate the anti-glioma efficacy of various therapeutic regimen.
Concurrent combination chemotherapy has been emerging as a promising approach to improve the efficacy of cancer therapy [29]-[31]. Thus, ^DWVAP Micelle/PTL was used in combination with TMZ and ^DWVAP Micelle/PTX respectively in the present study. For TMZ dosage regimen, mice were randomly divided into four groups (n = 8) and treated with 100 μL of saline, ^DWVAP Micelle/PTL (5 mg/kg), TMZ (10 mg/kg) and ^DWVAP Micelle/PTL plus TMZ (5 mg/kg and 10 mg/kg, respectively) via oral gavage or tail vein. […] Compared with TMZ, the combinational therapy prolonged the median survival time by 2.10 times (Figure 6A). […] The slices were also stained with anti-CD133 antibody to quantify glioma stem cells. […]
Figure 6 Kaplan-Meier survival curves of intracranial glioblastoma-implanted nude mice treated with different regimens. […] Quantification of angiogenesis inhibition in tumors with different formulations in comparison to saline group (D). […] Quantification of TUNEL positive cells in tumors with different formulations in comparison to saline group (F). […] Quantification of tumor stem cell inhibition in tumors with different formulations in comparison to saline group (H). […]

[1] = test system: NF-κB p65 nuclear translocation in U87 cells; assay: NF-κB activation and nuclear translocation assay (immunofluorescence); type: cell-based; details: 24 h treatment, Figure 7D-F
Source text: NF-κB plays a pivotal role in tumorigenesis through multiple signaling pathways. Aberrant activation of NF-κB has been observed in various types of cancer. Constitutive activation of NF-κB often causes bad response or resistance to chemotherapeutics, tumor recurrence, and poor outcome of treatment. Conversely, inhibition of NF-κB could sensitize the glioma cells to chemotherapy. The combination of PTL with PTX and TMZ in the present study enhanced anti-glioma efficacy in experimental animals. Since PTL is a potent inhibitor of NF-κB, the inhibitory activities of different PTL formulations on NF-κB pathway were examined. Immunofluorescence was used to detect NF-κB activation and nuclear translocation. After treatment with different formulations for 24 h, cells were processed for confocal fluorescence microscopic imaging. […] In addition, we also analyzed the p65 protein level in the nucleus of U87 cells by western blotting (Figure S7) and the results were consistent with immunofluorescence.
NF-κB activation and nuclear translocation assay was performed according to the reagent manufacturer's instructions (Beyotime Biotech, China). Briefly, cells were seeded in four-well disk and then treated with different drug loaded micelles or free drug alone or in combinations for 24 h. […] The protein concentrations were quantified using BCA Protein Assay Kit (Thermo Fisher Scientific). […]

[2] = biological target: T1, Recombinant human GRP78 protein (human, UniProt P11021 19-654); assay: SPR; Biacore T200; recombinant human GRP78 amine-coupled to a CM5 sensor chip; peptides in 2-fold serial dilution injected at 30 µL/min; buffer HBS-N or HBS-EP (methods); details: both partners purified
T1 construct: GRP78, human, recombinant; No catalogue number, tag or limits printed; source: bought: Abcam
T1 sequence (P11021 19-654): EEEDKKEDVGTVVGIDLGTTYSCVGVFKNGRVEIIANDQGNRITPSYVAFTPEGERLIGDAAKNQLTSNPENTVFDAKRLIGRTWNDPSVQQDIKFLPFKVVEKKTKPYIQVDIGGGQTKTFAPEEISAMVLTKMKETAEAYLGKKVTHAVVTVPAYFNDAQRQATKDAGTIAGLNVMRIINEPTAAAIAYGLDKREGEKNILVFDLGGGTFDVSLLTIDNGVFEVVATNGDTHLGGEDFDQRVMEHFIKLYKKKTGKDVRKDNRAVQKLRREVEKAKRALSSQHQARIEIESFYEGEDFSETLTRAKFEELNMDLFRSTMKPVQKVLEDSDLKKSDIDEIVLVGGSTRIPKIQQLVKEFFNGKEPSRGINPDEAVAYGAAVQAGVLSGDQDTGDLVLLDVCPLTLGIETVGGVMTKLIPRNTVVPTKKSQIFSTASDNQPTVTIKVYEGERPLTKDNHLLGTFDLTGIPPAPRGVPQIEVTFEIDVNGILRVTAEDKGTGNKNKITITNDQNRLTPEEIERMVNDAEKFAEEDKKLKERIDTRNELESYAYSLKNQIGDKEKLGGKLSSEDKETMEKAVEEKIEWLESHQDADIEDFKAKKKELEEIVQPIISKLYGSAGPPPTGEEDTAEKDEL

Molecule: CC(C)[C@@H](NC(=O)[C@@H](CCCNC(=N)N)NC(=O)[C@H](NC(=O)[C@@H](CC(N)=O)NC(=O)[C@H](N)CO)[C@H](C)O)C(=O)N[C@H](C)C(=O)N1CCC[C@@H]1C(=O)N[C@H](CS)C(=O)O [^DVAP] (HELM PEPTIDE1{[dS].[dN].[dT].[dR].[dV].[dA].[dP].[dC]}$$$$V2.0; N-terminus and C-terminus assumed)
fluorescence-positive U87 cells (U87 cells): More than 90%
fluorescence-positive HUVECs (HUVECs): > 80%
uptake by OPC cells (OPC cells): effectively taken up

Molecule: C=C1C(=O)O[C@H]2[C@H]1CC/C(C)=C/CC[C@@]1(C)O[C@@H]21 [PTL, Parthenolide]
median survival (intracranial U87 glioma; Figure S5B, 5 mg/kg PTL at 6, 8, 10, 12 and 14 days post-tumor implantation, saline 29.5 days): 32 days
p65 nuclear translocation [1]: inhibition of p65

Molecule: CC(=O)O[C@H]1C(=O)[C@@]2(C)[C@H]([C@H](OC(=O)c3ccccc3)[C@]3(O)C[C@H](OC(=O)[C@H](O)[C@@H](NC(=O)c4ccccc4)c4ccccc4)C(C)=C1C3(C)C)[C@]1(OC(C)=O)CO[C@@H]1C[C@@H]2O [Taxol, Paclitaxel]
median survival time (intracranial U87 glioma; Figure S5A, four injections, 6 mg/kg PTX each, at 6, 9, 12 and 15 days after implantation): 20 days

Kd [2]: 686 nM
B1: "Y-shaped" ^DWVAP peptide (peptide)
peptide: [dS][dN][dT][dR][dV][dA][dP][dC][Ahx][dW][dS][dW]G[dP][dY][dS]
modifications: not fully specified
notes: ^DVAP stretch (all-D) with D-Cys, ligand of GRP78; ^DWSW stretch (all-D), quorum-sensing peptide; joined to the first stretch through aminocaproic acid (Ahx), which has no one-letter code; also called ^DWVAP-Cys; ^DS^DN^DT^DR^DV^DA^DP^DC-Ahx-^DW^DS^DW^DG^DP^DY^DS; source: synthetic peptide (solid phase peptide synthesis)

Kd [2]: 102 nM
B2: ^DVAP peptide (peptide)
peptide: [dS][dN][dT][dR][dV][dA][dP][dC]
notes: all-D peptide ligand of GRP78; also called ^DS^DN^DT^DR^DV^DA^DP; ^DS^DN^DT^DR^DV^DA^DP^DC; source: synthetic peptide, bought: Karebay Biochem
